The structures appear in SMILES notation.

For assay [1], the target named is T1, 4-hydroxy-tetrahydrodipicolinate synthase (Escherichia coli K-12) (UniProt P0A6L2).
T1 sequence (whole entry): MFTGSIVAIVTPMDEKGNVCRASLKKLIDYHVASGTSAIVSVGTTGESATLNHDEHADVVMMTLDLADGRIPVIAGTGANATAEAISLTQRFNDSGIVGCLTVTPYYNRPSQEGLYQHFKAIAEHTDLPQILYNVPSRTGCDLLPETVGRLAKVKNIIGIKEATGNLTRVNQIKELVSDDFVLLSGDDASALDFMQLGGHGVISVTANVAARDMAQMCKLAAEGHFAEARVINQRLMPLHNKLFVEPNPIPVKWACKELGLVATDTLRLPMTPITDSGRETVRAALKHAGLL
Description: Inhibitory concentration against Escherichia coli dihydrodipicolinate synthase after 15 minutes.

Assay [2] has as its target T1, 4-hydroxy-tetrahydrodipicolinate synthase (Escherichia coli K-12). Description: Inhibitory concentration against Escherichia coli dihydrodipicolinate synthase after 30 minutes.

In the case of `CCOC(=O)/C=C/C(=O)CCC(=O)OCC`, the Concentration in assay [1] and in assay [2] was 50 nM throughout.

Source of the values: ChEMBL document CHEMBL1141987, “Two new irreversible inhibitors of dihydrodipicolinate synthase: diethyl (E,E)-4-oxo-2,5-heptadienedioate and diethyl (E)-4-oxo-2-heptenedioate” (Bioorg Med Chem Lett, 2005).
